# In patent US20250186321A1, “FORMULATION USING AMINO ACID AND CARBOXYLIC ACID, ORGANIC SALT, AND COMPOSITION COMPRISING SAME AND USE THEREOF” (MIYOSHI OIL & FAT CO., LTD., priority 2021, published 2025):
# Experiment: Appearance of formulation (state at 25° C.)
# Type: physicochemical
# Experimental: Formulations 1 to 427 shown in Tables 1A to 1D were prepared by the above-described method using the components (A) and (B) at the compounding molar ratios shown in the tables, and their states at 25° C. were observed.
# [1] = Tables 1C-1 to 1D, compounding molar ratio (Component (A):Component (B)) 1:1
# [2] = 25° C., components (A) and (B) at the compounding molar ratio shown
state at 25° C. [1],Compound,state at 25° C. [2]
Solid,N[C@@H](CS)C(=O)O.O=CO [Formulation 306],–
–,CC[C@H](C)[C@H](N)C(=O)O.O=C1O[C@H]([C@@H](O)CO)C(O)=C1O [Formulation 236],Solid
–,N=C(N)NCCC[C@H](N)C(=O)O.O=C(O)CCCCC(=O)O.O=C(O)CCCCC(=O)O [Formulation 74],Solid
–,CCCCC/C=C\C/C=C\CCCCCCCC(=O)O.CCCCC/C=C\C/C=C\CCCCCCCC(=O)O.NCCCC[C@H](N)C(=O)O [Formulation 29],Solid
Solid,N[C@@H](CC(=O)O)C(=O)O.O=C1O[C@H]([C@@H](O)CO)C(O)=C1O [Formulation 409],–
Solid,CSCC[C@H](N)C(=O)O.O=C(O)CCCCC(=O)O [Formulation 330],–
–,N[C@@H](Cc1c[nH]cn1)C(=O)O.O=C(O)CCC(=O)O [Formulation 96],Solid
–,CC[C@H](C)[C@H](N)C(=O)O.O=C(O)/C=C/C(=O)O [Formulation 231],Solid
–,CCCCC/C=C\C/C=C\CCCCCCCC(=O)O.CCCCC/C=C\C/C=C\CCCCCCCC(=O)O.N[C@@H](Cc1cnc[nH]1)C(=O)O [Formulation 113],Solid
–,CC[C@H](C)[C@H](N)C(=O)O.O=C(O)CCC(=O)O [Formulation 229],Solid
–,C[C@H](N)C(=O)O.O=C(O)c1ccccc1 [Formulation 164],Solid
Solid,N[C@@H](Cc1ccccc1)C(=O)O.O=C(O)[C@H](O)[C@@H](O)[C@H](O)[C@H](O)CO [Formulation 365],–
–,NCCCC[C@H](N)C(=O)O.O=C1O[C@H]([C@H](O)CO)C(O)=C1O.O=C1O[C@H]([C@H](O)CO)C(O)=C1O [Formulation 42],Solid
–,C[C@H](N)C(=O)O.O=CO [Formulation 147],Solid
–,NCCCC(=O)O.O=C(O)/C=C/C(=O)O [Formulation 180],Solid
Solid,O=C(O)[C@@H]1CCCN1.O=CO [Formulation 340],–
Solid,N[C@@H](CC(=O)O)C(=O)O.O=CO [Formulation 394],–
–,NCC(=O)O.O=C(O)C(O)C(O)C(=O)O (centres unmarked) [Formulation 143],Solid
–,CCCC(=O)O.CCCC(=O)O.N[C@@H](Cc1cnc[nH]1)C(=O)O [Formulation 110],Solid
–,N[C@@H](CO)C(=O)O.O=C1O[C@H]([C@@H](O)CO)C(O)=C1O [Formulation 253],Solid
–,CCC(=O)O.N[C@@H](Cc1c[nH]cn1)C(=O)O [Formulation 87],Solid
Solid,N[C@@H](CC(=O)O)C(=O)O.O=C(O)[C@H](O)[C@@H](O)[C@H](O)[C@H](O)CO [Formulation 399],–
Solid,N[C@@H](CC(=O)O)C(=O)O.O=C(O)C(O)C(O)C(=O)O (centres unmarked) [Formulation 407],–
Solid,N[C@@H](CS)C(=O)O.O=C(O)CCCCC(=O)O [Formulation 313],–
–,NCC(=O)O.O=C(O)/C=C/C(=O)O [Formulation 140],Solid
Solid,N[C@@H](CS)C(=O)O.O=C1O[C@H]([C@H](O)CO)C(O)=C1O [Formulation 322],–
–,CC(C)C[C@H](N)C(=O)O.O=CO [Formulation 204],Solid
Solid,O=C(O)/C=C/C(=O)O.O=C(O)[C@@H]1CCCN1 [Formulation 353],–

state at 25° C. [1],Compound,state at 25° C. [2]
–,N[C@@H](CO)C(=O)O.O=CO [Formulation 238],Solid
Solid,N[C@@H](CC(=O)O)C(=O)O.O=C(O)CCC(=O)O [Formulation 402],–
–,CC[C@H](C)[C@H](N)C(=O)O.O=C(O)CC(O)(CC(=O)O)C(=O)O [Formulation 233],Solid
–,NCC(=O)O.O=C(O)C[C@H](O)C(=O)O [Formulation 141],Solid
–,N[C@@H](Cc1c[nH]cn1)C(=O)O.O=C(O)CCCCC(=O)O [Formulation 95],Solid
Solid,CSCC[C@H](N)C(=O)O.O=C(O)CCC(=O)O [Formulation 331],–
–,CC(C)[C@H](N)C(=O)O.O=C(O)C[C@H](O)C(=O)O [Formulation 198],Solid
–,CCCCC/C=C\C/C=C\CCCCCCCC(=O)O.N[C@@H](Cc1c[nH]cn1)C(=O)O [Formulation 92],Solid
–,CCCCC/C=C\C/C=C\CCCCCCCC(=O)O.C[C@H](N)C(=O)O [Formulation 154],Solid
–,NCC(=O)O.O=C1O[C@H]([C@H](O)CO)C(O)=C1O [Formulation 146],Solid
–,N=C(N)NCCC[C@H](N)C(=O)O.O=C(O)/C=C/C(=O)O.O=C(O)/C=C/C(=O)O [Formulation 77],Solid
–,NCCCC(=O)O.O=C(O)c1ccccc1 [Formulation 184],Solid
–,N[C@@H](Cc1c[nH]cn1)C(=O)O.O=C(O)c1ccccc1.O=C(O)c1ccccc1 [Formulation 123],Solid
–,CC(O)C(=O)O.N[C@@H](Cc1cnc[nH]1)C(=O)O [Formulation 94],Solid
–,N=C(N)NCCCC(N)C(=O)O.O=C(O)C=Cc1ccccc1.O=C(O)C=Cc1ccccc1 (centres unmarked) [Formulation 82],Solid
–,C[C@H](N)C(=O)O.O=C(O)/C=C/C(=O)O [Formulation 160],Solid
–,NCC(=O)O.O=C(O)[C@H](O)[C@@H](O)[C@H](O)[C@H](O)CO [Formulation 135],Solid
–,CCCC(=O)O.NCCCC[C@H](N)C(=O)O [Formulation 5],Solid
Solid,CC(O)C(=O)O.N[C@@H](Cc1ccccc1)C(=O)O [Formulation 366],–
–,CC[C@H](C)[C@H](N)C(=O)O.O=C(O)C[C@H](O)C(=O)O [Formulation 232],Solid
–,CCC(=O)O.CCC(=O)O.N=C(N)NCCC[C@H](N)C(=O)O [Formulation 66],Solid
Salid,CCCCCC(=O)O.O=C(O)[C@@H]1CCCN1 [Formulation 343],–
–,CC(C)C[C@H](N)C(=O)O.CCCCCC(=O)O [Formulation 207],Solid
–,NCCCC[C@H](N)C(=O)O.O=CO.O=CO [Formulation 22],Solid
–,C[C@@H](O)[C@H](N)C(=O)O.O=C(O)CC(O)(CC(=O)O)C(=O)O [Formulation 267],Solid
–,CCCCCCCC/C=C\CCCCCCCC(=O)O.CCCCCCCC/C=C\CCCCCCCC(=O)O.N[C@@H](Cc1c[nH]cn1)C(=O)O [Formulation 112],Solid
–,NCC(=O)O.O=C(O)CCC(=O)O [Formulation 138],Solid

Compound,state at 25° C. [1],state at 25° C. [2]
N[C@@H](Cc1ccccc1)C(=O)O.O=C(O)c1ccccc1 [Formulation 374],Solid,–
N[C@@H](Cc1c[nH]c2ccccc12)C(=O)O.O=C1O[C@H]([C@H](O)CO)C(O)=C1O [Formulation 393],Solid,–
N[C@@H](CCC(=O)O)C(=O)O.O=C(O)/C=C/C(=O)O [Formulation 421],Solid,–
N[C@@H](CCC(=O)O)C(=O)O.N[C@@H](CCC(=O)O)C(=O)O [Formulation 420],Solid,–
